Experimental findings from patent US20260015358A1, “BICYCLIC DERIVATIVES, COMPOSITIONS AND USES THEREOF” (Danatlas Pharmaceuticals Co., Ltd., priority 2023, published 2026) are described below.

The structures appear in SMILES notation. A value given as a limit tells only on which side of the number the result lay.

The target in assay [1] is T1, WRN [UniPro: Q14191 (WRN_HUMAN), N500-C946] (Homo sapiens (Human), UniProt Q14191). As to the kind of experiment: WRN ATPase assay (ADP-Glo). Particulars: WRN enzymatic activity assay. The assay is classed as biochemical. (In general: ADP-Glo first removes unused ATP, then detects ADP through luciferase.)
T1 sequence (Q14191 500-946): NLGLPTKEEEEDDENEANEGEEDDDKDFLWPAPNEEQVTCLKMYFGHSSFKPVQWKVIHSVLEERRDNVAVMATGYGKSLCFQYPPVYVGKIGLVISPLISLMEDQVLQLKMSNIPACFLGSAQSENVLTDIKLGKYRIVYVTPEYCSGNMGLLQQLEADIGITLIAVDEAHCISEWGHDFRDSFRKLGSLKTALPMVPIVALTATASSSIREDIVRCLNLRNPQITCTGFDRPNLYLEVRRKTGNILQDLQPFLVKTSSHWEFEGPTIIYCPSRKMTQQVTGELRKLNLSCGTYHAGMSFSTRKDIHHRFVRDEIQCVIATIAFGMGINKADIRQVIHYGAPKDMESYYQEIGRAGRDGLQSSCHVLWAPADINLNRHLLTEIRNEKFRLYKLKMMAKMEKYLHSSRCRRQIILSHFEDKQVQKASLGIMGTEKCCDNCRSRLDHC
The target in assay [2] is T1, WRN [UniPro: Q14191 (WRN_HUMAN), N500-C946]. As to the kind of experiment: WRN unwinding assay (FORKF DNA, fluorescence). Format: biochemical. Particulars: Table 14.

By IC50 is commonly meant the midpoint of a concentration-inhibition curve. Higher therefore signals lower potency. With `CCc1c(N2CCN(C(=O)c3nccn(C)c3=O)CC2)c(=O)n2nc(C3=CCOCC3)nc2n1CC(=O)Nc1ccc(C(F)(F)F)cc1Cl` [Example 54, N-(2-Chloro-4-(trifluoromethyl)phenyl)-2-(2-(3,6-dihydro-2H-pyran-4-yl)-5-ethyl-6-(4-(4-methyl-3-oxo-3,4-dihydropyrazine-2-carbonyl)piperazin-1-yl)-7-oxo-[1,2,4]triazolo[1,5-a]pyrimidin-4(7H)-yl)acetamide], the IC50 in assay [1] and in assay [2] was 100 to 1000 nM each time.

For the molecule `CCc1c(N2CCN(C(=O)c3cnc4sccc4c3O)CC2)c(=O)n2nc(C3=CCOCC3)nc2n1CC(=O)Nc1ccc(C(F)(F)F)cc1Cl` [Example 55, N-(2-Chloro-4-(trifluoromethyl)phenyl)-2-(2-(3,6-dihydro-2H-pyran-4-yl)-5-ethyl-6-(4-(4-hydroxythieno[2,3-b]pyridine-5-carbonyl)piperazin-1-yl)-7-oxo-[1,2,4]triazolo[1,5-a]pyrimidin-4(7H)-yl)acetamide], the IC50 in assay [1] and in assay [2] was less than 100 nM in each case.

As for `CCc1c(N2CCN(C(=O)c3nnc(C)[nH]c3=O)CC2)c(=O)n2nc(C3=CCOCC3)nc2n1CC(=O)Nc1ccc(C(F)(F)F)cc1Cl` [Example 56, N-(2-Chloro-4-(trifluoromethyl)phenyl)-2-(2-(3,6-dihydro-2H-pyran-4-yl)-5-ethyl-6-(4-(3-methyl-5-oxo-4,5-dihydro-1,2,4-triazine-6-carbonyl)piperazin-1-yl)-7-oxo-[1,2,4]triazolo[1,5-a]pyrimidin-4(7H)-yl)acetamide], the IC50 in assay [1] and in assay [2] was less than 100 nM each time.

On to `CCc1c(N2CCN(C(=O)c3cnc4[nH]cnc4c3O)CC2)c(=O)n2nc(C3=CCOCC3)nc2n1CC(=O)Nc1ccc(C(F)(F)F)cc1Cl` [Example 57, N-(2-Chloro-4-(trifluoromethyl)phenyl)-2-(2-(3,6-dihydro-2H-pyran-4-yl)-5-ethyl-6-(4-(7-hydroxy-3H-imidazo[4,5-b]pyridine-6-carbonyl)piperazin-1-yl)-7-oxo-[1,2,4]triazolo[1,5-a]pyrimidin-4(7H)-yl)acetamide], for which the IC50 in assay [1] and in assay [2] was less than 100 nM throughout.

Take `CCc1c(N2CCN(C(=O)c3nn(C)c(=O)[nH]c3=O)CC2)c(=O)n2nc(C3=CCOCC3)nc2n1CC(=O)Nc1ccc(C(F)(F)F)cc1Cl` [Example 58, N-(2-Chloro-4-(trifluoromethyl)phenyl)-2-(2-(3,6-dihydro-2H-pyran-4-yl)-5-ethyl-6-(4-(2-methyl-3,5-dioxo-2,3,4,5-tetrahydro-1,2,4-triazine-6-carbonyl)piperazin-1-yl)-7-oxo-[1,2,4]triazolo[1,5-a]pyrimidin-4(7H)-yl)acetamide]: the IC50 in assay [1] and in assay [2] was less than 100 nM throughout.

In the case of `CCc1c(N2CCN(C(=O)c3cn(C)c(=O)[nH]c3=O)CC2)c(=O)n2nc(C3=CCOCC3)nc2n1CC(=O)Nc1ccc(C(F)(F)F)cc1Cl` [Example 59, N-(2-Chloro-4-(trifluoromethyl)phenyl)-2-(2-(3,6-dihydro-2H-pyran-4-yl)-5-ethyl-6-(4-(1-methyl-2,4-dioxo-1,2,3,4-tetrahydropyrimidine-5-carbonyl)piperazin-1-y1)-7-oxo-[1,2,4]triazolo[1,5-a]pyrimidin-4(7H)-yl)acetamide], the IC50 in assay [1] was 100 to 1000 nM; in assay [2] it was less than 100 nM.

On to `CCc1c(N2CCN(C(=O)c3cccc(C)c3O)CC2)c(=O)n2nc(C3=CCOCC3)nc2n1CC(=O)Nc1ccc(C(F)(F)F)cc1Cl` [Example 60, N-(2-Chloro-4-(trifluoromethyl)phenyl)-2-(2-(3,6-dihydro-2H-pyran-4-yl)-5-ethyl-6-(4-(2-hydroxy-3-methylbenzoyl)piperazin-1-yl)-7-oxo-[1,2,4]triazolo[1,5-a]pyrimidin-4(7H)-yl)acetamide], for which the IC50 in assay [1] and in assay [2] was 100 to 1000 nM throughout.

As to `CCc1c(N2CCN(C(=O)c3c[nH][nH]c3=O)CC2)c(=O)n2nc(C3=CCOCC3)nc2n1CC(=O)Nc1ccc(C(F)(F)F)cc1Cl` [Example 63, N-(2-Chloro-4-(trifluoromethyl)phenyl)-2-(2-(3,6-dihydro-2H-pyran-4-yl)-5-ethyl-7-oxo-6-(4-(3-oxo-2,3-dihydro-1H-pyrazole-4-carbonyl)piperazin-1-yl)-[1,2,4]triazolo[1,5-a]pyrimidin-4(7H)-yl)acetamide], the IC50 in assay [1] and in assay [2] was less than 100 nM in each case.

For the molecule `CCc1c(N2CCN(C(=O)c3cn(C)[nH]c3=O)CC2)c(=O)n2nc(C3=CCOCC3)nc2n1CC(=O)Nc1ccc(C(F)(F)F)cc1Cl` [Example 64, N-(2-Chloro-4-(trifluoromethyl)phenyl)-2-(2-(3,6-dihydro-2H-pyran-4-yl)-5-ethyl-6-(4-(1-methyl-3-oxo-2,3-dihydro-1H-pyrazole-4-carbonyl)piperazin-1-yl)-7-oxo-[1,2,4]triazolo[1,5-a]pyrimidin-4(7H)-yl)acetamide], the IC50 in assay [1] was 100 to 1000 nM; in assay [2], less than 100 nM.

For `CCc1c(N2CCN(C(=O)c3ccc[nH]c3=O)CC2)c(=O)n2nc(C3=CCOCC3)nc2n1CC(=O)Nc1ccc(C(F)(F)F)cc1Cl` [Example 65, N-(2-Chloro-4-(trifluoromethyl)phenyl)-2-(2-(3,6-dihydro-2H-pyran-4-yl)-5-ethyl-7-oxo-6-(4-(2-oxo-1,2-dihydropyridine-3-carbonyl)piperazin-1-yl)-[1,2,4]triazolo[1,5-a]pyrimidin-4(7H)-yl)acetamide], the IC50 in assay [1] and in assay [2] was 100 to 1000 nM each time.

Take `CCc1c(N2CCN(C(=O)C3CCC(=O)N3)CC2)c(=O)n2nc(C3=CCOCC3)nc2n1CC(=O)Nc1ccc(C(F)(F)F)cc1Cl` (stereo not drawn) [Example 66, N-(2-Chloro-4-(trifluoromethyl)phenyl)-2-(2-(3,6-dihydro-2H-pyran-4-yl)-5-ethyl-7-oxo-6-(4-(5-oxopyrrolidine-2-carbonyl)piperazin-1-yl)-[1,2,4]triazolo[1,5-a]pyrimidin-4(7H)-yl)acetamide]: the IC50 in assay [1] and in assay [2] was greater than 1000 nM in each case.

`CCc1c(N2CCN(C(=O)c3nccc4[nH]ccc34)CC2)c(=O)n2nc(C3=CCOCC3)nc2n1CC(=O)Nc1ccc(Cl)cc1C(F)(F)F` [Example 67, 2-(6-(4-(1H-Pyrrolo[3,2-c]pyridine-4-carbonyl)piperazin-1-yl)-2-(3,6-dihydro-2H-pyran-4-yl)-5-ethyl-7-oxo-[1,2,4]triazolo[1,5-a]pyrimidin-4(7H)-yl)-N-(4-chloro-2-(trifluoromethyl)phenyl)acetamide]: the IC50 in assay [1] and in assay [2] was less than 100 nM in each case.

In the case of `CCc1c(N2CCN(C(=O)c3ccnc4cc[nH]c34)CC2)c(=O)n2nc(C3=CCOCC3)nc2n1CC(=O)Nc1ccc(Cl)cc1C(F)(F)F` [Example 68, 2-(6-(4-(1H-Pyrrolo[3,2-b]pyridine-7-carbonyl)piperazin-1-yl)-2-(3,6-dihydro-2H-pyran-4-yl)-5-ethyl-7-oxo-[1,2,4]triazolo[1,5-a]pyrimidin-4(7H)-yl)-N-(4-chloro-2-(trifluoromethyl)phenyl)acetamide], the IC50 in assay [1] and in assay [2] was 100 to 1000 nM throughout.

In the case of `CCc1c(N2CCN(C(=O)c3ncnc4[nH]ccc34)CC2)c(=O)n2nc(C3=CCOCC3)nc2n1CC(=O)Nc1ccc(Cl)cc1C(F)(F)F` [Example 69, 2-(6-(4-(7H-Pyrrolo[2,3-d]pyrimidine-4-carbonyl)piperazin-1-yl)-2-(3,6-dihydro-2H-pyran-4-yl)-5-ethyl-7-oxo-[1,2,4]triazolo[1,5-a]pyrimidin-4(7H)-yl)-N-(4-chloro-2-(trifluoromethyl)phenyl)acetamide], the figures for the IC50 in assay [1] and in assay [2] were 100 to 1000 nM and less than 100 nM, respectively.

`CCc1c(N2CCN(C(=O)c3cnc(C(F)(F)F)[nH]3)CC2)c(=O)n2nc(C3=CCOCC3)nc2n1CC(=O)Nc1ccc(Cl)cc1C(F)(F)F` [Example 70, N-(4-Chloro-2-(trifluoromethyl)phenyl)-2-(2-(3,6-dihydro-2H-pyran-4-yl)-5-ethyl-7-oxo-6-(4-(2-(trifluoromethyl)-1H-imidazole-5-carbonyl)piperazin-1-yl)-[1,2,4]triazolo[1,5-a]pyrimidin-4(7H)-yl)acetamide]: the IC50 in assay [1] and in assay [2] was 100 to 1000 nM in each case.

As for `CCc1c(N2CCN(C(=O)c3cc4ccsc4[nH]c3=O)CC2)c(=O)n2nc(C3=CCOCC3)nc2n1CC(=O)Nc1ccc(C(F)(F)F)cc1Cl` [Example 71, N-(2-Chloro-4-(trifluoromethyl)phenyl)-2-(2-(3,6-dihydro-2H-pyran-4-yl)-5-ethyl-7-oxo-6-(4-(6-oxo-6,7-dihydrothieno[2,3-b]pyridine-5-carbonyl)piperazin-1-yl)-[1,2,4]triazolo[1,5-a]pyrimidin-4(7H)-yl)acetamide], the IC50 in assay [1] and in assay [2] was less than 100 nM throughout.

As to `CCc1c(N2CCN(C(=O)c3ccn4nc(C)cc4c3O)CC2)c(=O)n2nc(C3=CCOCC3)nc2n1CC(=O)Nc1ccc(C(F)(F)F)cc1Cl` [Example 72, N-(2-Chloro-4-(trifluoromethyl)phenyl)-2-(2-(3,6-dihydro-2H-pyran-4-yl)-5-ethyl-6-(4-(4-hydroxy-2-methylpyrazolo[1,5-a]pyridine-5-carbonyl)piperazin-1-yl)-7-oxo-[1,2,4]triazolo[1,5-a]pyrimidin-4(7H)-yl)acetamide], the IC50 in assay [1] and in assay [2] was less than 100 nM throughout.

Turning to `CCc1c(N2CCN(C(=O)c3n[nH]c(=O)n(C)c3=O)CC2)c(=O)n2nc(C3=CCOCC3)nc2n1CC(=O)Nc1ccc(Cl)cc1C(F)(F)F` [Example 73, N-(4-Chloro-2-(trifluoromethyl)phenyl)-2-(2-(3,6-dihydro-2H-pyran-4-yl)-5-ethyl-6-(4-(4-methyl-3,5-dioxo-2,3,4,5-tetrahydro-1,2,4-triazine-6-carbonyl)piperazin-1-yl)-7-oxo-[1,2,4]triazolo[1,5-a]pyrimidin-4(7H)-yl)acetamide], the IC50 in assay [1] and in assay [2] was less than 100 nM in each case.
